Reference: patent US7129250B2, “Neuroprotective and anti-proliferative compounds” (Aegera Therapeutics Inc., priority 2000, dated 2006)
pIC50: −log10 of the molar value. One block for each molecule: values may come before it.

Columns and labels:
SHSY-5Y cells = test: Etoposide Killing of SHSY-5Y; format: cell-based; settings: etoposide 32 uM
Protocol: SHSY-5Y cells were grown in growth media. Cells are placed at 50,000 cells per 96 well. Four days latter the cells were treated with drug for 48 hours prior to etoposide (32 uM) treatment. On day 6 media was changed to that containing etoposide and drug for 4 hours, at which point the media was changed to media containing drug only. Cells are allowed to survive overnight and then assessed for viability with metabolic activity measured (WST-1-Beohringer Mannheime), as shown in TABLE 13.

Jurkat cells = test: Killing of cultured Jurkats with and without anti-Fas; format: cell-based, Human; settings: for Survival % With Anti-Fas: with anti-Fas (5 ng/mL)
Protocol: Jurkats are a T-cell derived lymphoma cell line which expresses both FAS receptor and Fas-L. These cells, however, are only mildly sensitive to Fas-L/anti-Fas induced apoptosis. Select compounds were tested for their ability to kill Jurkats. Additionally, we investigated the ability of select compounds to sensitize the Jurkats to anti-Fas mediated apoptosis.
Human lymphoma jurkat cells were cultured in suspension in 24 well plates. Jurkat cell were treated with test compounds either alone or in the presence of suboptimal doses of anti-Fas antibody. After 18 hours of treatment cell death was assessed by Facs. Cells were incubated with propidium iodide and the percentage of cells that incorporated the stain was counted by Facs.

HIAP1 mRNA in LAN5 cells = test: LAN5 HAIP1 Down Regulators (RNA levels); format: cell-based; settings: HIAP1 RNA level vs control = 1.0; 24 hours drug
Protocol: LAN5 cells were grown in growth media. Cells were plated at cells 50,000 per well in 96 cells per 96 wells. Five days latter drug was added and the cells were liced 24 hours latter using RLT buffer.

CGNs [1] = test: Ceramide Killing of CGNs; format: cell-based, CD1 mice; settings: ceramide 100 uM
From the text: Ceramide is a native […] found in most mammalian and human cells. The upregulation of endogenous ceramide has been linked to caspase 1 (ICE) induced apoptosis (Suzuki, A. et al. Exp. Cel. Res., 1997, 233, 41). In a similar fashion, the addition of ceramide to cultured CGNs results in caspase induced apoptosis, and is therefore considered an effective in vitro model for the various neurodegenerative diseases described above, which are characterized by caspase induced apoptosis, as observed in stroke models. Addition of selected compounds of the formula I through III, 24 hours prior to the addition of ceramide, to cultured CGNs provided protection against apoptosis, with 10 to 20% of the cells being saved at 1–10 μM drug concentrations (see Example 114).
CGNs were harvested from day 8/9 post-natal CD1 mice, plated on Poly-D-Lycine coated plates and incubated for 6 days at 37° C. under 5% CO2. Cells were pretreated with drug 24 hours prior to ceramide (100 uM) and drug addition.

CGNs [2] = test: Cisplatin Killing of CGNs; format: cell-based, CD1 mice
Protocol: Cisplatin has been used extensively in the treatment of various cancers. One dosblimiting side effect of this chemotherapeutic agent is related to hearing loss as a result of its toxicity to auditory neurons and loss of feeling in the extremities. Cisplatin induces apoptosis to both cultured CGN and cortical neurons.
CGNs were harvested from day 8/9 post-natal CD1 mice, plated on Poly-D-Lycine coated plates and incubated for 6 days at 37° C. under 5% CO2. The cells were treated with media containing drug and cisplatin […].

CGNs [3] = test: High/Low Potassium (HK/LK) assay in CGNs; format: cell-based; settings: HK/LK switch; drug 24 h pre-treatment; assayed 16 h after media change; concentration at which cell death was inhibited by 50%
Protocol: Cultured CGNs which are maintained in a medium containing 26 mM potassium (high K^+ or HK) undergo cell death when the medium is changed to one containing 5 mM potassium (low K^+ or LK). HK maintains the cells in a highly polarized state, duplicating that of fully innervated neurons. The switch to LK (5 mM is more representative of physiological conditions) results in depolarization of the cells, mimicking the loss of neuronal conductivity. […] As these killer genes are turned on by various types of neuronal insult as observed in AD, PD, and stroke, HK/LK is a general in vitro model for neuronal degradation, blanketing a wide range of neurodegenerative diseases. Compounds that protect against HK/LK in CGNs would therefore be efficacious in treatment and/or prevention of various neurodegenerative disease states.
CGNs were harvested from day 8/9 post-natal CD1 mice, plated on Poly-D-Lycine coated plates and incubated for 6 days at 37° C., with […] potassium, under 5% CO2. Pretreated cells were treated with drug 24 hours prior to changing the media to one containing […] potassium and drug. Cells were assayed 16 hours after the final media change using cell TITER96 (Promega).

Compound: CC(C)(C)OC(=O)NCC(=O)n1cc(C2=CC(=O)NC2=O)c2cc(OCc3ccccc3)ccc21 [Compound 69, 3-(N-(N-Boc-2-aminoacetyl)-5-benzyloxyindol-3-yl)-1H-pyrrole-2,5-dione]
% SHSY-5Y cell survival (SHSY-5Y cells; drug 1 μM): 5.6%

Compound: N=C(N)SCCCn1c2ccccc2c2c3c(n4c5ccccc5cc4c21)C(=O)NC3=O [Compound 145]
Survival % With Anti-Fas (Jurkat cells; compound dose 3 (μM)): 34.9%
Survival % Without Anti-Fas (Jurkat cells; compound dose 3 (μM)): 92.44%
Survival % Without Anti-Fas (Jurkat cells; compound dose 10 (μM)): 11%

Compound: O=C1C=C(c2cn(S(=O)(=O)c3cccc4ccccc34)c3ccc(Br)cc23)C(=O)N1 [Compound 61, 3-(N-(1-naphthylenesulfonyl)-5-bromoindol-3-yl)-1H-pyrrole-2,5-dione]
Fold Induction (HIAP1 mRNA in LAN5 cells): 0.16
% CGN Survival (CGNs [1]; drug 100 nM): 0%
% CGN Survival (CGNs [1]; drug 1 μM): 5.1%

Fold Induction (HIAP1 mRNA in LAN5 cells): 0.21
Compound: Cc1ccc(S(=O)(=O)n2cc(C3=CC(=O)NC3=O)c3cc(OCc4ccccc4)ccc32)cc1 [Compound 70, 3-(N-tosyl-5-benzyloxyindol-3-yl)-1H-pyrrole-2,5-dione]
% SHSY-5Y cell survival (SHSY-5Y cells; drug 10 μM): 7.6%

Compound: COc1ccc2[nH]cc(CCNC(C)=O)c2c1 [melatonin, Melatonin, reference compound]
protection of CGNs (CGNs [2]; high doses): protect CGNs

Compound: COc1ccc2c(c1)CC1c3[nH]c4ccccc4c3C3=C(C(=O)NC3=O)N21 (stereo not shown) [Compound 34]
pIC50 (CGNs [2]; assayed 48 hours after final drug treatment): 5.00
pIC50 (CGNs [3]): 5.00

Compound: Cc1cc2ccccc2n1C1=C(c2cn(CCCSC(=N)N)c3ccc(OCc4ccccc4)cc23)C(=O)NC1=O [Compound 150]
Survival % With Anti-Fas (Jurkat cells; compound dose 3 (μM)): 4.49%
Survival % Without Anti-Fas (Jurkat cells; compound dose 3 (μM)): >90%
Survival % Without Anti-Fas (Jurkat cells; compound dose 10 (μM)): 0%

Compound: O=C1C=C(c2c[nH]c3ccc(Br)cc23)C(=O)N1 [Compound 56, 3-(1H-5-bromoindol-3-yl)-1H-pyrrole-2,5-dione]
Fold Induction (HIAP1 mRNA in LAN5 cells): 0.31

Compound: Cc1ccc(S(=O)(=O)n2cc(C3=CC(=O)NC3=O)c3cc(Br)ccc32)cc1 [Compound 60, 3-(N-(p-toluenesulfoiiyl)-5-bromoindol-3-yl)-1H-pyrrole-2,5-dione]
Fold Induction (HIAP1 mRNA in LAN5 cells): 0.13
pIC50 (CGNs [3]): 5.00

Compound: Cn1cc(C2=C(n3cc(CCCSC(=N)N)c4ccccc43)C(=O)NC2=O)c2cc(OCc3ccccc3)ccc21 [Compound 168]
Survival % With Anti-Fas (Jurkat cells; compound dose 0.3 (μM)): 49.0%
Survival % Without Anti-Fas (Jurkat cells; compound dose 0.3 (μM)): 90.7%
Survival % With Anti-Fas (Jurkat cells; compound dose 1 (μM)): 48.6%
Survival % Without Anti-Fas (Jurkat cells; compound dose 1 (μM)): 89.3%
Survival % With Anti-Fas (Jurkat cells; compound dose 3 (μM)): 1%
Survival % Without Anti-Fas (Jurkat cells; compound dose 3 (μM)): 46.1%
Survival % With Anti-Fas (Jurkat cells; compound dose 10 (μM)): 0%
Survival % Without Anti-Fas (Jurkat cells; compound dose 10 (μM)): 1.2%
Survival % With Anti-Fas (Jurkat cells; compound dose 30 (μM)): 0%
Survival % Without Anti-Fas (Jurkat cells; compound dose 30 (μM)): 0%

Compound: O=C1C=C(c2cn(Cc3ccccc3)c3ccc(OCc4ccccc4)cc23)C(=O)N1 [Compound 73, 3-(N-benzyl-5-benzyloxyindol-3-yl)-1H-pyrrole-2,5-dione]
% SHSY-5Y cell survival (SHSY-5Y cells; drug 10 μM): toxic

Fold Induction (HIAP1 mRNA in LAN5 cells): 0.22
Compound: CN(C)c1cccc2c(S(=O)(=O)n3cc(C4=CC(=O)NC4=O)c4cc(Br)ccc43)cccc12 [Compound 63, 3-(N-dansyl-5-bromoindol-3-yl)-1H-pyrrole-2,5-dione]

Compound: Cc1cn(C2=C(c3cn(CCCSC(=N)N)c4ccc(OCc5ccccc5)cc34)C(=O)NC2=O)c2ccccc12 [Compound 149]
Survival % With Anti-Fas (Jurkat cells; compound dose 3 (μM)): 2.00%
Survival % Without Anti-Fas (Jurkat cells; compound dose 3 (μM)): >90%
Survival % Without Anti-Fas (Jurkat cells; compound dose 10 (μM)): 0%

Compound: O=C1C=C(c2c[nH]c3ccc(Cl)cc23)C(=O)N1 [Compound 99, 3-(1H-5-chloroindol-3-yl)-1H-pyrrole-2,5-dione]
% SHSY-5Y cell survival (SHSY-5Y cells; drug 10 μM): 4.7%
